Data on two compounds can be found in publication PMC11542830, “3-nitropyridine analogues as novel microtubule-targeting agents” (PLOS ONE, 2024).

Structures are written as SMILES. Read-outs that look alike come from different tables or passages of the source.

One assay relates to tubulin. As to the kind of experiment: Fluorescence-based tubulin polymerization assay. Type of assay: biochemical. To be noted: purified tubulin, fluorescent reporter, vs DMSO control. Here is the method:
Tubulin polymerization in vitro was analyzed using the fluorescence-based tubulin polymerization assay (Cytoskeleton, Inc.), according to the manufacturer’s guidelines. Fluorescence was read on a SaFire II microplate reader (Tecan).

The subject of another assay is primary cortical neurons. The assay is described as follows: Neurite outgrowth assay. It is filed as cell-based, Sprague-Dawley rat. To be noted: Primary cortical neuron, rat primary cortical neurons, 72 hours. Here is the method: Neurite outgrowth assay was performed by Fluofarma (Pessac, France). Primary cortical neurons were harvested from E19 Sprague-Dawley (Janvier Labs) rat embryos, dissociated and plated at 10,000 per well in a tissue-culture treated 96 well plate, in neuronal medium (SM2 matrix independent growth medium, Stem Cell Technologies). Neurons were followed by phase contrast imaging with 1 image acquired every 4 hours, using an Incucyte Zoom (Essen BioScience) with a 20x objective. Four fields per well were acquired. After 24 hours, cells were treated with test compounds and neurite outgrowth was followed for 72 hours post-treatment. All measures were performed in triplicate in one experiment.
Neurite outgrowth kinetics were analyzed from each phase contrast image using the Neurotrack module of the Incucyte Zoom platform. Neurite length and branch points were obtained for each time point. The area under the curve (AUC) was calculated in each experimental condition (GraphPad Prism 6, GraphPad Software).

Where [1] appears, read: read-out: IC50 for branch point formation.
Where [2] appears, read: read-out: IC50 for neurite length.

As usually defined, the IC50 is the concentration that inhibits the measured activity by half. Take `CC[C@]1(O)C[C@@H]2CN(CCc3c([nH]c4ccccc34)[C@@](C(=O)OC)(c3cc4c(cc3OC)N(C)[C@H]3[C@@](O)(C(=O)OC)[C@H](OC(C)=O)[C@]5(CC)C=CCN6CC[C@]43[C@@H]65)C2)C1` [vinblastine, reference compound]: in the assay on tubulin, the “effect on tubulin polymerization in vitro” value is “marked decrease in final polymer formation”. Besides, the concentration for half-maximal inhibition (IC50) with primary cortical neurons (setting [1]) worked out at 0.7 nM; in the assay on primary cortical neurons (setting [2]), 0.9 nM.
As for `CC[C@]1(O)C[C@H]2CN(CCc3c([nH]c4ccccc34)[C@@](C(=O)OC)(c3cc4c(cc3OC)N(C=O)[C@H]3[C@@](O)(C(=O)OC)[C@H](OC(C)=O)[C@]5(CC)C=CCN6CC[C@]43[C@@H]65)C2)C1` [vincristine, reference compound], the IC50 in the assay with primary cortical neurons (setting [1]) and in the assay with primary cortical neurons (setting [2]) was 0.2 nM throughout.
